Experimental data: paper PMC9516332 (Frontiers in Oncology, 2022)
Like-named read-outs stand apart in the source and are kept apart here.

What was measured:
Assay in all cases: Kinase panel profiling at 1 µmol/L (MSA or IMAP), percentage inhibition
Type in all cases: biochemical
[1] = molecular target: panel of 255 wild-type kinases (Homo sapiens, UniProt P08581); settings: MET; 1 µmol/L single concentration
[2] = molecular target: panel of 255 wild-type kinases (Homo sapiens, UniProt P49759); settings: read-out: %-inhibition at 1 µmol/L, CLK1
[3] = molecular target: T1, panel of 255 wild-type kinases (Homo sapiens, UniProt P29322); settings: read-out: %-inhibition at 1 µmol/L, EPHA8
T1 sequence (P29322 28-1005): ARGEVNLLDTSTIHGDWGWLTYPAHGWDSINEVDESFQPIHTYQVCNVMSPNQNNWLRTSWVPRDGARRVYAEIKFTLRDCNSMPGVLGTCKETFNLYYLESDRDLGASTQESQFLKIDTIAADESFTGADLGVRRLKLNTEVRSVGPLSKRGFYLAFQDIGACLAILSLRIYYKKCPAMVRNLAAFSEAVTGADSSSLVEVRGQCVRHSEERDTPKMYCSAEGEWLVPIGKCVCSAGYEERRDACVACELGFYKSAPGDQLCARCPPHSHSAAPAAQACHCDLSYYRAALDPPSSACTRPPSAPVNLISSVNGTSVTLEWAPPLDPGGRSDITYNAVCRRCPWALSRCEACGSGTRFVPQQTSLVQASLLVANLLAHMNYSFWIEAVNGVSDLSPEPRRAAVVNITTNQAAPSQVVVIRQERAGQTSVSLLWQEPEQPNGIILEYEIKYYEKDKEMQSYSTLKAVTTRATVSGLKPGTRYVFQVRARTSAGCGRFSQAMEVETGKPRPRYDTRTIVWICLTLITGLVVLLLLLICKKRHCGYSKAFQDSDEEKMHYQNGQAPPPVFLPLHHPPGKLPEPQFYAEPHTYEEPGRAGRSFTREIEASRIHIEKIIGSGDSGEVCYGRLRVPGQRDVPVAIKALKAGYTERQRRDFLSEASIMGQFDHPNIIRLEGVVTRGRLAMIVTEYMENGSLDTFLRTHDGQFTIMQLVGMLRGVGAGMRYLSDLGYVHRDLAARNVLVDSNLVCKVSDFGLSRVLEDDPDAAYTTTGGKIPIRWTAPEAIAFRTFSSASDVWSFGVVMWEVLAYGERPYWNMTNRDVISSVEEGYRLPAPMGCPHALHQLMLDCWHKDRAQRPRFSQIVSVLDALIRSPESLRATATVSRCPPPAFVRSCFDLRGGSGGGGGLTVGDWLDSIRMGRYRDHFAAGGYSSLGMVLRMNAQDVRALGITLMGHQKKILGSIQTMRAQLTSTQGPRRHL

[4] = molecular target: panel of 255 wild-type kinases (Homo sapiens, UniProt P11802); settings: read-out: %-inhibition CDK4/CycD3
[5] = molecular target: T2, panel of 255 wild-type kinases (Homo sapiens, UniProt Q96L34); settings: read-out: %-inhibition, MARK4
T2 sequence (Q96L34 1-752): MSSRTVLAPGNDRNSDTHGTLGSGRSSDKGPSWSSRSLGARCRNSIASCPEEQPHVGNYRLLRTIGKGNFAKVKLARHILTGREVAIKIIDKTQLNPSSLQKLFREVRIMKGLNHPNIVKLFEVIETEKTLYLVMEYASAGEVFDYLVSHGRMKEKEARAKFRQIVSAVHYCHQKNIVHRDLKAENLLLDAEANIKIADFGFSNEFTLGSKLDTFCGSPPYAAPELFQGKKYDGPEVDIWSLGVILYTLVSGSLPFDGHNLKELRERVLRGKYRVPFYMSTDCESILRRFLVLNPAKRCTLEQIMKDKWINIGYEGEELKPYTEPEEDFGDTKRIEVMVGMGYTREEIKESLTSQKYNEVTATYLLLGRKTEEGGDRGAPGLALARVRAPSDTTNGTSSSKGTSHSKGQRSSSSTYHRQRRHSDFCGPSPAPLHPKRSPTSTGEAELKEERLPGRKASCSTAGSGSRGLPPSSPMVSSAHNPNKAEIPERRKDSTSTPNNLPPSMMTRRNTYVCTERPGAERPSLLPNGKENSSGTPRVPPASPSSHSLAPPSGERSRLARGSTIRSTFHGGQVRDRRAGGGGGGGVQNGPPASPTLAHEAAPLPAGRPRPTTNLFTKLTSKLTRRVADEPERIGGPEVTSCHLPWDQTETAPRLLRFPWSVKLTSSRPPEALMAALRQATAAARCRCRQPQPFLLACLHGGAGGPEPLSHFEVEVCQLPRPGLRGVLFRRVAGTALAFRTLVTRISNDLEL

[6] = molecular target: panel of 255 wild-type kinases (Homo sapiens, UniProt Q9H2X6); settings: read-out: %-inhibition at 1 µmol/L, HIPK2
[7] = molecular target: panel of 255 wild-type kinases (Homo sapiens, UniProt P22455); settings: read-out: %-inhibition at 1 µmol/L, FGFR4
[8] = molecular target: panel of 255 wild-type kinases (Homo sapiens, UniProt P49840); settings: read-out: %-inhibition at 1 µmol/L, GSK3α
[9] = molecular target: panel of 255 wild-type kinases (Homo sapiens, UniProt P22612); settings: read-out: %-inhibition at 1 µmol/L, PKACγ
[10] = molecular target: panel of 255 wild-type kinases (Homo sapiens, UniProt P24723); settings: read-out: %-inhibition at 1 µmol/L, PKCη
[11] = molecular target: panel of 255 wild-type kinases (Homo sapiens, UniProt P51617); settings: read-out: %-inhibition at 1 µmol/L, IRAK1
[12] = molecular target: panel of 255 wild-type kinases (Homo sapiens, UniProt P09769); settings: read-out: %-inhibition at 1 µmol/L, FGR
[13] = kinase CLK1, 1 µmol/L single concentration
[14] = kinase EPHA8, 1 µmol/L single concentration
[15] = CDK4/CycD3 kinase assay, 1 µmol/L single concentration
[16] = MARK4, 1 µmol/L single concentration
[17] = kinase HIPK2, 1 µmol/L single concentration
[18] = kinase FGFR4, 1 µmol/L single concentration
[19] = kinase GSK3α, 1 µmol/L single concentration
[20] = kinase PKACγ, 1 µmol/L single concentration
[21] = kinase PKCη, 1 µmol/L single concentration
[22] = kinase IRAK1, 1 µmol/L single concentration
[23] = kinase FGR, 1 µmol/L single concentration

Row | SMILES | inhibition at 1 µM [1] [%] | inhibition at 1 µM [2, 13] [%] | inhibition at 1 µM [3, 14] [%] | inhibition at 1 µM [4, 15] [%] | inhibition at 1 µM [5, 16] [%] | inhibition at 1 µM [6, 17] [%] | inhibition at 1 µM [7, 18] [%] | inhibition at 1 µM [8, 19] [%] | inhibition at 1 µM [9, 20] [%] | inhibition at 1 µM [10, 21] [%] | inhibition at 1 µM [11, 22] [%] | inhibition at 1 µM [12, 23] [%] | further results
1 | Cc1nc(NC(=O)N2CCC[C@H]2C(N)=O)sc1-c1ccnc(C(C)(C)C(F)(F)F)c1 [alpelisib] | -1 | 59 | -6.59 | -10 | 0.414 | 3.33 | 9 | -2.64 | -7.38 | 1.42 | -5.3 | 2 | 
2 | Cn1cc(-c2cc3c(N4CCN(c5ncc([C@@](C)(N)c6ccc(F)cc6)cn5)CC4)ncnn3c2)cn1 [avapritinib] | 16 |  | 73 | 9 | -5.63 | 4 | 41 | 3 | 4.43 | -5 | 8 | 66 | 
3 | Cn1cnc2c(F)c(Nc3ccc(Br)cc3F)c(C(=O)NOCCO)cc21 [binimetinib] | 0.851 | -1.7 | 2.68 | 3.25 | -4 | -4.27 | 4.66 | -2.8 | -3 | 6 | 2.19 | 0.0227 | 
4 | CNC(=O)c1ccc(-c2cnc3ncc(Cc4ccc5ncccc5c4)n3n2)cc1F [capmatinib] |  |  |  |  |  |  |  |  |  |  |  |  | inhibition at 1 µM [2]: 8%; inhibition at 1 µM [3]: -14%; inhibition at 1 µM [4]: -3.55%; inhibition at 1 µM [5]: 6%; inhibition at 1 µM [6]: 0.264%; inhibition at 1 µM [7]: 8%; inhibition at 1 µM [8]: -0.492%; inhibition at 1 µM [9]: -1.43%; inhibition at 1 µM [10]: -8.53%; inhibition at 1 µM [11]: 35%; inhibition at 1 µM [12]: -1.79%
5 | COc1cc2ncnc(Nc3ccc(F)c(Cl)c3)c2cc1NC(=O)/C=C/CN1CCCCC1 [dacomitinib] | 24 | 19 | 59 | -0.81 | 4.31 | 4.76 | -4.42 | 1.45 | 12 | 11 | 76 | 58 | 
6 | C[C@H](Nc1ncnc2nc[nH]c12)c1cc2cccc(Cl)c2c(=O)n1-c1ccccc1 [duvelisib] | 1.63 | -0.419 | -7 | -10 | 4.7 | 0.116 | 5 | -1.9 | -4 | 0.743 | -8 | 3.24 | 
7 | COC(=O)N[C@@H](C)CNc1nccc(-c2cn(C(C)C)nc2-c2cc(Cl)cc(NS(C)(=O)=O)c2F)n1 [encorafenib] | 2.82 | 3 | 16 | 10 | 2.32 | 0.238 | 4.23 | 55 | -2.32 | 13 | 21 | 1.37 | 
8 | CN1CCN(c2ccc(C(=O)Nc3n[nH]c4ccc(Cc5cc(F)cc(F)c5)cc34)c(NC3CCOCC3)c2)CC1 [entrectinib] | 24 | 60 | 55 | -7.43 | 15 | 8 | 38 | -0.424 | -4.58 | 19 | 16 | 95 | 
9 | CCc1nc(C(N)=O)c(Nc2ccc(N3CCC(N4CCN(C)CC4)CC3)c(OC)c2)nc1NC1CCOCC1 [gilteritinib] | 90 | 96 | 66 | 46 | 53 | 84 | 15 | 7.48 | 5.41 | 13 | 84 | 96 | 
10 | CCN1CCN(c2ccc(Nc3cc(N(C)C(=O)Nc4c(Cl)c(OC)cc(OC)c4Cl)ncn3)cc2)CC1 [infigratinib] | 0.848 | 10 | -10 | 66 | -3 | -0.912 |  | -1.67 | -0.0435 | 2 |  | 46 | 
11 | FC(F)(F)c1ccc(CNc2ccc(Cc3c[nH]c4ncc(Cl)cc34)cn2)cn1 [pexidartinib] |  | 13 | 6.33 | -1.58 | 17 | 4.6 | 7.42 | 3 | 3 | 0.77 | -5 | 5.64 | 
